Results from ChEMBL document CHEMBL3880404, “Aminopyrimidines useful as kinase inhibitors” (2007).

Legend:
[1] = target: Aurora kinase B (Homo sapiens, UniProt Q96GD4); assay: Inhibition of Aurora-1 (unknown origin) incubated for 10 mins using Kemptide substrate and [gamma-33P]-ATP measured after 3 hrs by liquid scintillation counting based radiometric assay
[2] = target: T1, Aurora kinase A (Homo sapiens, UniProt O14965); assay: Inhibition of Aurora-2 (unknown origin) pre-incubated with substrate for 10 mins before enzyme addition and measured after 10 mins post enzyme addition using Kemptide substrate by pyruvate kinase and LDH based standard coupled enzyme assay
T1 sequence (O14965 whole entry): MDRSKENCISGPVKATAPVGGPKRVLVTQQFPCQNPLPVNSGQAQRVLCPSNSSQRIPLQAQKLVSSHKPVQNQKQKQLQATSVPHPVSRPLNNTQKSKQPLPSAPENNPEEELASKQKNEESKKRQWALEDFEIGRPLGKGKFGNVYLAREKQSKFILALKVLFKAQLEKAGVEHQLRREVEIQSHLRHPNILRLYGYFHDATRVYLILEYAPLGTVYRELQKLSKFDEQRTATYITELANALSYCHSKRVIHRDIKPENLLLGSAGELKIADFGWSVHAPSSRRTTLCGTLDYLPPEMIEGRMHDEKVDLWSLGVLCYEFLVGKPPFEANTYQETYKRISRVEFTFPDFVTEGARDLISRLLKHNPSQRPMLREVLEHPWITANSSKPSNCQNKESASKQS

[3] = target: T2, Tyrosine-protein kinase JAK3 (Homo sapiens, UniProt P52333); assay: Inhibition of JAK3 (unknown origin) using poly(Glu)4Tyr substrate and [gamma-33P]-ATP incubated for 20 mins by Top-count assay
T2 sequence (P52333 whole entry): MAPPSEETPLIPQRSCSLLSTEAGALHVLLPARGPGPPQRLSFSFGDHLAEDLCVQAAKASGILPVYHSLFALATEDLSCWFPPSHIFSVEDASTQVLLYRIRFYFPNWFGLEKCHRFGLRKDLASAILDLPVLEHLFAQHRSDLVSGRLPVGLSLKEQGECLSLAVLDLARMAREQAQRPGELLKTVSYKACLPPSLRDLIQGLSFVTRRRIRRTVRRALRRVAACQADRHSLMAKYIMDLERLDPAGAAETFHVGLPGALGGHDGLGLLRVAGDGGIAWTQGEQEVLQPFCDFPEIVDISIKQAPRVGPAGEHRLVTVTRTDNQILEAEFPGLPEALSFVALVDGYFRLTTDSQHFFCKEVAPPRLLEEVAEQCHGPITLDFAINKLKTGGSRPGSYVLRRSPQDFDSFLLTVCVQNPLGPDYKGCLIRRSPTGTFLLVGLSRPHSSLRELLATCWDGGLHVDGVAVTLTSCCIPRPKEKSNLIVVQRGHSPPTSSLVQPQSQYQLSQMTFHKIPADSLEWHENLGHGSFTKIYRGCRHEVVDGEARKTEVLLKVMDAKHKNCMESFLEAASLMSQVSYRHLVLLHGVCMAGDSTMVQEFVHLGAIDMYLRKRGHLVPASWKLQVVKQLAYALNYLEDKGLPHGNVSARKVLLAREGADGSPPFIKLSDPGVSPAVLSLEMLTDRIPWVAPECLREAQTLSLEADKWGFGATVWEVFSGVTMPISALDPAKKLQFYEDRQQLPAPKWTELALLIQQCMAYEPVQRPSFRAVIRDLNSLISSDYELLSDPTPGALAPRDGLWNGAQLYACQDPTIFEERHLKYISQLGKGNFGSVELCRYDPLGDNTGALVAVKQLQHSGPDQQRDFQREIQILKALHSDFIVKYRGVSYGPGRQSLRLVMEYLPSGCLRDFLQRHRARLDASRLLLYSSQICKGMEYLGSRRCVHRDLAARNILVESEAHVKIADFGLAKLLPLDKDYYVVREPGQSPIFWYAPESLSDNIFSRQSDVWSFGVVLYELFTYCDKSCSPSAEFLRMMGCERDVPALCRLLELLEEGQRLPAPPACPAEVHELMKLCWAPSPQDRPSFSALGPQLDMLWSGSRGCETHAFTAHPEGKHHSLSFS

[4] = target: Tyrosine-protein kinase JAK2 (Homo sapiens, UniProt O60674); assay: Inhibition of JAK2 (unknown origin) using poly(Glu)4Tyr substrate and [gamma-33P]-ATP incubated for 20 mins by Top-count assay
Sequence of Tyrosine-protein kinase JAK2 (O60674 whole entry): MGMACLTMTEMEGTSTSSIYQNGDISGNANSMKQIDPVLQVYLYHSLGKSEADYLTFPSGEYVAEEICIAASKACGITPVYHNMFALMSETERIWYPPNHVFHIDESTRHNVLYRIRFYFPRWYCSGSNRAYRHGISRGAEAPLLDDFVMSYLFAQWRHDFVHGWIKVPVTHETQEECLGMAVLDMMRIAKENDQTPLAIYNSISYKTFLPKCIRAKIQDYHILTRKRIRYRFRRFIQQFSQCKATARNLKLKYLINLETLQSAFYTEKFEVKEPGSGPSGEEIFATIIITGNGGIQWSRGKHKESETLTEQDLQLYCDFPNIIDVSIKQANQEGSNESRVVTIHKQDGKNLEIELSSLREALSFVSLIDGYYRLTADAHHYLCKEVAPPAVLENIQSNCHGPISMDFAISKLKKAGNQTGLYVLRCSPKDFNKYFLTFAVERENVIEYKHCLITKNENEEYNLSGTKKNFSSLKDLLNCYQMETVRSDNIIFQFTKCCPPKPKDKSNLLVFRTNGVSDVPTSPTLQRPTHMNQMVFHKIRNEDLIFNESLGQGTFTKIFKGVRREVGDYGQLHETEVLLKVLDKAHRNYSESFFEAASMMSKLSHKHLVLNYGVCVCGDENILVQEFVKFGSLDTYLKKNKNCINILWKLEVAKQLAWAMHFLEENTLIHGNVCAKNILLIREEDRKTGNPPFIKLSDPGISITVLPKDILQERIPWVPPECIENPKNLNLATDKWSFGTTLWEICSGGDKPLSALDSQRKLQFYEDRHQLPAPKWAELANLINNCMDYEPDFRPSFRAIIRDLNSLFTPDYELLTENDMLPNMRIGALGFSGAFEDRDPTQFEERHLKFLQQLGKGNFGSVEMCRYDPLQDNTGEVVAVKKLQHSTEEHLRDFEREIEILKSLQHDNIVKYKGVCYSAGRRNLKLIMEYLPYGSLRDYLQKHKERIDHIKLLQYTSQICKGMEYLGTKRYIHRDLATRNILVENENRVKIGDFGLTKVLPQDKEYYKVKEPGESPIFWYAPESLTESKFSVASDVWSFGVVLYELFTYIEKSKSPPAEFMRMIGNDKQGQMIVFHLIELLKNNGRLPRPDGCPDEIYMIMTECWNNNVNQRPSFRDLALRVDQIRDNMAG

Sequence of Aurora kinase B (Q96GD4 whole entry): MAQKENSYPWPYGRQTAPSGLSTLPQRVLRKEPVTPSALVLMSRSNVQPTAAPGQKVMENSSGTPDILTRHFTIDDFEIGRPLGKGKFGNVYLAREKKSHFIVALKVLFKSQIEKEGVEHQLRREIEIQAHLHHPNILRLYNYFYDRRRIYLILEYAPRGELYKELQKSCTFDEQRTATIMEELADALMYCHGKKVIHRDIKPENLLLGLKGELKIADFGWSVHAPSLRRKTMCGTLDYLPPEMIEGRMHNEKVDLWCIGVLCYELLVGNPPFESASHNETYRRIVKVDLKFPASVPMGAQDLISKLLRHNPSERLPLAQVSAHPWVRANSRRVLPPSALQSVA

With `Cc1cc(Nc2cc(N3CC(F)(C4CC4)C3)nc(O[C@H]3CCN(C(=O)OC(C)(C)C)C3)n2)[nH]n1` the Ki [1] was under 500 nM, the Ki [2] was under 10 nM and the Ki [3] was under 500 nM. It also gave a Ki [4] of under 100 nM.
`Cc1cc(Nc2cc(N3CCC3)nc(O[C@H]3CCN(C(=O)OC(C)(C)C)C3)n2)[nH]n1` was tested, and the Ki [1] was under 500 nM and the Ki [3] was under 500 nM.
`Cc1cc(Nc2cc(N3CC(F)(C4CC4)C3)nc(O[C@H]3CCN(C(=O)c4cc(Cl)ccc4F)C3)n2)n[nH]1` [MK-6592] showed a Ki [2] of under 10 nM and a Ki [4] of under 100 nM.
